Experiments:
HeLaLuc705 cells = test: SSO-mediated luciferase induction assay; assay type: cell-based
Experimental: FIG. 1B-1E. Effects with SSOs. FIG. 1B Structure of UNC2383. […] The cells were then rinsed and incubation continued for an additional 4 h in DMEM+10% FBS. Cells were rinsed twice in PBS and luciferase activity (RLU) and cell protein determined. The larger round symbol indicates the MM oligonucleotide. Means+/−SE. N=3. […] The cells were further incubated and then luciferase and protein determined. The total time of incubation in each case was 6 h. […] Means+/−SE. N=3.
FIG. 3. Effect and Cytotoxicity of Analogs. The effect of selected UNC2383 analogs on luciferase induction by SSO623 was measured as described in Methods and in the legend of FIG. 1B-1E. Cytotoxicity was measured using the Alamar Blue method as in FIG. 1E. MM10 is the effect of 10 uM compound in the presence of a mismatched oligonucleotide. Means and SE. N=3.
HeLaLuc705 cells are stably transfected with a firefly luciferase reporter whose coding sequence is interrupted by an abnormal intron. […] NIH-3T3-MDR cells are stably transfected with a human MDR1 cDNA coding for the P-glycoprotein (Pgp). We have described the maintenance and use of these cell lines elsewhere. (18, 20)
SSO-mediated luciferase induction assays were conducted as previously described. (18) In short, HeLaLuc705 cells in 24 well culture plates were preincubated with SSO623 followed by brief treatment with the small molecule; at intervals thereafter, luciferase activity and protein content were determined. […] (30)

HeLa Luc 705 cells = test: Confocal microscopy of endomembrane permeability and oligonucleotide localization; assay type: cell-based; conditions: 2 h
Experimental: FIG. 5A-5B. Effect on endomembrane permeability. FIG. 5A: HeLa Luc 705 cells (50 000) were seeded into glass-bottom dishes and incubated at 37° C. for attachment. Alexa 488-Dextran 10K (200 μg/mL) or TAMRA SSO 623 (2.5 μM) were added into the medium and the cells incubated for 24 h. Cells were washed with PBS and then placed back in the medium and treated with UNC2383 for 2 h or maintained as controls. Cells were rinsed after drug treatment. Live cells were imaged with an Olympus FV1200 or a Zeiss LSM710 confocal microscope. For the studies with Alexa 488 Dextran, the controls are shown in image panels a and b while cells treated with 10 μM UNC2383 are in image panels c and d. […] Images e and f are composites of TAMRA, Hoechst, and DIC images, and the pink coloration in f indicates overlap of the TAMRA and Hoechst fluorescence. Images are typical of three independent assays. Intensity settings were identical for fluorescence images with or without UNC2383. FIG. 5B quantitates the TAMRA fluorescence in the nucleus for controls versus cells treated with 5 μM UNC2383, as measured using Fiji software, with Hoechst stain used to delineate the nucleus (N=12).
FIG. 6. Confocal images of compound effects on nuclear distribution of a fluorescent oligonucleotide. […] Nuclei lacking fluorescence are indicated with gray arrows. […]
FIG. 7A-7B. […] Composite images showing TAMRA fluorescence, GFP, and DIC are provided. […]
Effects of UNC2383 on endosome stability were monitored in cell culture models as previously described. […] Live cells were imaged by fluorescence confocal microscopy with or without treatment with UNC2383 or its analogs. […] Co-localization of TAMRA labeled SSO 623 with marker proteins was quantitated using Fiji (ImageJ) software and expressed as a Manders' Correlation Coefficient. […] EGFP protein expression was monitored by immunostaining with an anti-EGFP antibody (Abcam) using techniques previously described. (3) EGFP immunostaining was analyzed using a Leica SP2 confocal microscope with acquisition parameters constant throughout the study: images were processed with Adobe Photoshop software. […]

[1] = cells preloaded with 100 nM SSO623, FIG. 1D

With O=C(Nc1nc2ccccc2n1CCN1CCCC1)c1cc2cc(Cl)ccc2o1 [UNC2383] the “effectiveness in cells compared to Retro-1” value (HeLaLuc705 cells) was “far more effective”, the “effectiveness in cells compared to UNC10217938” value (HeLaLuc705 cells) was “approximately equivalent” and the “enhancement of SSO actions” value (HeLaLuc705 cells; 2 μM) was “quite strongly enhanced”. The “SSO-mediated luciferase induction, comparison with chloroquine” value (HeLaLuc705 cells; FIG. 9C, 2 h, chloroquine also 16 h) was “very active”, the “onset of action: effects first observed” value (HeLaLuc705 cells; [1]) was ≤ 30 min and the “onset of action: reaching a plateau” value (HeLaLuc705 cells; [1]) was ≤ 120 min. The EC50 (HeLaLuc705 cells; luciferase induction by SSO623) was 2000 nM, the “luciferase induction after mismatched oligonucleotide” value (HeLaLuc705 cells; mismatched oligonucleotide followed by compound) was “no effect” and the “relocalization of TAMRA labeled SSO to the nucleus” value (HeLa Luc 705 cells; 5 μM) was “partial but substantial relocalization”. The “colocalization of TAMRA-SSO with late endosomes and lysosomes (Manders' Correlation Coefficient)” value (HeLa Luc 705 cells; 5 μM, GFP-Rab7, GFP-LAMP1) was “substantially reduced” and the “release of Alexa 488-Dextran from vesicular entrapment” value (HeLa Luc 705 cells; 10 μM) was “partial release”.

— patent US11040056B2, “Benzimidazoles that enhance the activity of oligonucleotides” (The University of North Carolina at Chapel Hill, priority 2018, dated 2021)
